Measurements published in patent publication US10654834B2 (Venenum Biodesign, LLC, priority 2016, dated 2020).
Where a name gives a salt, the structure may show the parent alone.

Assays:
human TGR5 receptor = biological target: T1, human TGR5 receptor (Homo sapiens, UniProt Q8TDU6); experiment: Human TGR5 cAMP production assay (hTGR5-CHO cells, DiscoveRx cAMP XS+ kit); type: cell-based; details: luminescent cAMP assay, read-out: Human TGR5 Lum. cAMP Activity (EC50)
T1 construct: host or cells: CHO-K1 (hTGR5-CHO)
T1 sequence (Q8TDU6 1-330): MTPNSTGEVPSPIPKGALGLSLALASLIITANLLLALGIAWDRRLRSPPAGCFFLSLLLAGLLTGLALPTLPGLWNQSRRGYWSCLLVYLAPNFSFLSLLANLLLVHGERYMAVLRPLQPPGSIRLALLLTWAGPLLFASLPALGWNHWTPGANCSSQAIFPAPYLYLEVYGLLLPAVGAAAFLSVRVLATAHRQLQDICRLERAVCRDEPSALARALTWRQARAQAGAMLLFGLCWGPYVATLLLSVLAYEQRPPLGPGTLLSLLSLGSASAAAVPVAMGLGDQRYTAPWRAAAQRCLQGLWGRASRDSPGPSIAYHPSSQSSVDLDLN
How it was run: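 EC50 values come from luminescent enzyme-complementation cAMP detection, read after overnight incubation. Beforehand, hTGR5-expressing CHO-K1 cells with IBMX and anti-cAMP antibody were exposed 1 h at room temperature to serially diluted (half-log) compounds.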

mouse TGR5 receptor = biological target: T2, mouse TGR5 receptor (Mus musculus, UniProt Q80SS6); experiment: Mouse TGR5 luminescent cAMP production assay (HEK293-EBNA cells, DiscoveRx cAMP XS+ kit); type: cell-based; details: HEK293-EBNA cells overexpressing mouse TGR5, luminescent cAMP assay; read-out: Mouse TGR5 Lum. cAMP Activity (EC50)
T2 construct: host or cells: HEK293-EBNA (293 c18, ATCC CRL10852)
T2 sequence (Q80SS6 1-329): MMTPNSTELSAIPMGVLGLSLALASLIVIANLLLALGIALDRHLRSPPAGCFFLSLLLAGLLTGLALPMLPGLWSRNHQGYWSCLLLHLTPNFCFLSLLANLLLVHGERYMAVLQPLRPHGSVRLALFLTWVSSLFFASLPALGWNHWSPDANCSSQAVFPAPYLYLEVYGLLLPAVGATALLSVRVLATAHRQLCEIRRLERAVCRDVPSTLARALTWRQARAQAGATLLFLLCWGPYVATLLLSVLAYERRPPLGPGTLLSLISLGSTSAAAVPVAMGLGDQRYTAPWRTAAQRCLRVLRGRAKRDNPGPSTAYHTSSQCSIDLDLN
Protocol: Mouse TGR5 cAMP Production Assay
Compounds of the present invention were evaluated for their ability to induce cAMP production in HEK-EBNA cells overexpressing the mouse TGR5 receptor. Human embryonic kidney cells (HEK293-EBNA) stably expressing mouse TGR5 receptor were established using the following procedure. Specifically, a commercially obtained gene encoding mouse TGR5 (accession number BC116914) from Thermo Scientific (Waltham, Mass.) was cloned into an episomal expression vector. The resulting expression plasmid was then transfected into 293 c18 (ATCC® CRL10852™) cells, which express the Epstein-Barr virus nuclear antigen EBNA1 and can support the replication of episomal vectors. Selection for the plasmid was maintained with Hygromycin B. Cells were cultured and maintained in DMEM (Sigma; cat #6429) supplemented with 10% Fetal Bovine Serum, 1% penicillin/streptomycin, 2 mM L-alanine L-glutamine (GlutaMax), and 250 μg/mL Hygromycin.
We developed two cAMP production assays.
(i) Luminescent cAMP Production Assay
In this first cAMP production assay, the cAMP production was measured using DiscoveRx's cAMP XS+ kit following the manufacturer's recommended protocol. Briefly, HEK293-EBNA cells stably overexpressing mouse TGR5 were harvested using non-enzymatic cell dissociation buffer (Sigma-Aldrich, St. Louis, Mo.), spun down, then resuspended in serum-free DMEM with 500 μM IBMX at a density of 1.25×10^6 cells/mL. 500 μL of cAMP antibody solution was added to 500 μL of cell suspension and incubated at room temperature for 20 min.
Test compounds were serially diluted (half-log dilutions) in DMSO and then further diluted 1:50 in PBS, 10 mM HEPES buffer. 2 μL of serially diluted compound was added to a 384-well low volume plate (Greiner cat #784075) and centrifuged briefly. 2 μl of the cell/cAMP antibody mixture was then added to each compound-containing well and allowed to incubate at room temperature for one (1) hour. Following incubation, the XS+ kits' ED/Lysis/CL Substrate Working Solution was prepared following the manufacturer's recommended protocol and 4 μL was added to each well of the plate. The plate was then incubated for one (1) hour at room temperature. Following incubation, 4 μL of (Enzyme Acceptor) EA reagent was added to the plate and allowed to incubate overnight at room temperature. Luminescent signal was then detected using the Viewlux instrument (PerkinElmer, Waltham, Mass.).
In Table 52, EC50 values for both human and mouse cells were determined according to the TGR5 cAMP assays described above. […]

Row | Compound | EC50 (human TGR5 receptor) [nM] | EC50 (mouse TGR5 receptor) [nM]
1 | N#Cc1ccc(CCNC(=O)[C@@H]2CCCN2c2cc(-c3ccc(C#N)cc3)nc(C(F)(F)F)n2)cc1 [Compound 145, (S)-N-(4-cyanophenethyl)-1-(6-(4-cyanophenyl)-2-(trifluoromethyl)pyrimidin-4-yl)pyrrolidine-2-carboxamide] | 100 to 999 | < 100
2 | CC(C)(C)OC(=O)N1CCC(Oc2cc(N3CCC[C@H]3C(=O)NCCc3ccc(C#N)cc3)nc(C(F)(F)F)n2)CC1 [Compound 45, (S)-tert-butyl 4-((6-(2-((4-cyanophenethyl)carbamoyl)pyrrolidin-1-yl)-2-(trifluoromethyl)pyrimidin-4-yl)oxy)piperidine-1-carboxylate] | 100 to 999 | < 100
3 | CNC(=O)c1cc(-c2cc(N3CCC[C@H]3C(=O)NCCc3ccc(C#N)cc3)nc(C(F)(F)F)n2)cs1 [Compound 179, (S)—N-(4-cyanophenethyl)-1-(6-(5-(methylcarbamoyl)thiophen-3-yl)-2-(trifluoromethyl)pyrimidin-4-yl)pyrrolidine-2-carboxamide] | 1000 to 30000 | 1000 to 30000
4 | N#Cc1ccc(CCNC(=O)[C@@H]2CCCN(c3cc(N4CCN(Cc5cccc6c5OCO6)CC4)nc(C(F)(F)F)n3)C2)cc1 [Compound 319, (R)-1-(6-(4-(benzo[d][1,3]dioxol-4-ylmethyl)piperazin-1-yl)-2-(trifluoromethyl)pyrimidin-4-yl)-N-(4-cyanophenethyl)piperidine-3-carboxamide] | 100 to 999 | 100 to 999
5 | N#Cc1ccc(CCNC(=O)[C@@H]2CCN2c2cc(-c3ccncc3)nc(C(F)(F)F)n2)cc1 [Compound 303] | 100 to 999 | 100 to 999
6 | N#Cc1ccc(CCNC(=O)[C@@H]2CCN2c2cc(N3CCC(CN)CC3)nc(C(F)(F)F)n2)cc1 [Compound 245, (S)-(1-(6-(4-aminomethylpiperidin-1-yl)-2-(trifluoromethyl)pyrimidin-4-yl)-N-(4-cyanophenethyl)azetidine-2-carboxamide hydrochloride] | 100 to 999 | 100 to 999
7 | CC(C)(C)OC(=O)N1CCC(Nc2cc(N3CCC[C@H]3C(=O)NCCc3ccc(C#N)cc3)nc(C(F)(F)F)n2)CC1 [Compound 15] | 1000 to 30000 | < 100
8 | N[C@@H]1CC(C(=O)NCCc2ccc(C(F)(F)F)cc2)N(c2cc(N3CCC(CO)CC3)nc(C(F)(F)F)n2)C1 (stereo partly drawn) [Compound 218, (4R)-4-amino-1-(6-(4-(hydroxymethyl)piperidin-1-yl)-2-(trifluoromethyl)pyrimidin-4-yl)-N-(4-(trifluoromethyl)phenethyl)pyrrolidine-2-carboxamide] | 1000 to 30000 | 100 to 999
9 | Cn1ccc2cc(-c3cc(N4CCC[C@H]4C(=O)NCCc4ccc(C#N)cc4)nc(C(F)(F)F)n3)ccc21 [Compound 169, (S)-N-(4-cyanophenethyl)-1-(6-(1-methyl-1H-indol-5-yl)-2-(trifluoromethyl)pyrimidin-4-yl)pyrrolidine-2-carboxamide] | 1000 to 30000 | 100 to 999
10 | CC(C)(C)OC(=O)N1CCC(Oc2cc(N3CC[C@H]3C(=O)NCCc3ccc(C#N)cc3)nc(C(F)(F)F)n2)CC1 [Compound 243, (S)-tert-butyl 4-((6-(2-((4-cyanophenethyl)carbamoyl)azetidin-1-yl)-2-(trifluoromethyl)pyrimidin-4-yl)oxy)piperidine-1-carboxylate] | 100 to 999 | 100 to 999
11 | CC(=O)NCCNc1cc(N2CCC[C@@H](C(=O)NCCc3ccc(C(F)(F)F)cc3)C2)nc(C(F)(F)F)n1 [Compound 324, (R)-1-(6-((2-acetamidoethyl)amino)-2-(trifluoromethyl)pyrimidin-4-yl)-N-(4-(trifluoromethyl)phenethyl)piperidine-3-carboxamide] | 1000 to 30000 | 100 to 999
12 | N#Cc1ccc(CCNC(=O)[C@@H]2CCN2c2cc(OC3CCOCC3)nc(C(F)(F)F)n2)cc1 [Compound 242, (S)—N-(4-cyanophenethyl)-1-(6-((tetrahydro-2H-pyran-4-yl)oxy)-2-(trifluoromethyl)pyrimidin-4-yl)azetidine-2-carboxamide] | 100 to 999 | < 100
13 | CN(C)CCN1CCN(c2cc(N3CCC[C@@H](C(=O)NCCc4ccc(C#N)cc4)C3)nc(C(F)(F)F)n2)CC1 [Compound 317, (R)-N-(4-cyanophenethyl)-1-(6-(4-(2-(dimethylamino)ethyl)piperazin-1-yl)-2-(trifluoromethyl)pyrimidin-4-yl)piperidine-3-carboxamide] | 100 to 999 | 100 to 999
14 | CC(C)(C)OC(=O)NCC1CCN(c2cc(N3CCC[C@H]3C(=O)NCCc3ccc(C#N)cc3)nc(C(F)(F)F)n2)CC1 [Compound 17] | 100 to 999 | 100 to 999
15 | CCOc1ccc(-c2cc(N3CCC[C@H]3C(=O)NCCc3ccc(C#N)cc3)nc(C(F)(F)F)n2)cc1 [Compound 151, (S)-N-(4-cyanophenethyl)-1-(6-(4-ethoxyphenyl)-2-(trifluoromethyl)pyrimidin-4-yl)pyrrolidine-2-carboxamide] | 100 to 999 | 100 to 999
16 | N#Cc1ccc(CCNC(=O)[C@@H]2CCN2c2cc(-c3ccc(CO)cc3)nc(C(F)(F)F)n2)cc1 [Compound 304, (S)-N-(4-cyanophenethyl)-1-(6-(4-(hydroxymethyl)phenyl)-2-(trifluoromethyl)pyrimidin-4-yl)azetidine-2-carboxamide] | 100 to 999 | 100 to 999
17 | O=C(NCCc1ccc(C(F)(F)F)cc1)[C@@H]1CCCN1c1cc(N2CCC(CCO)CC2)nc(C(F)(F)F)n1 [Compound 7] | < 100 | < 100
18 | N#Cc1ccc(CCNC(=O)[C@@H]2CCCN2c2cc(Oc3ccccc3)nc(C(F)(F)F)n2)cc1 [Compound 43, (S)-N-(4-cyanophenethyl)-1-(6-phenoxy-2-(trifluoromethyl)pyrimidin-4-yl)pyrrolidine-2-carboxamide] | 100 to 999 | 100 to 999
19 | COCC1CCN(c2cc(N3CCC[C@@H](C(=O)NCCc4ccc(C#N)cc4)C3)nc(C(F)(F)F)n2)CC1 [Compound 310, (R)-N-(4-cyanophenethyl)-1-(6-(4-(methoxymethyl)piperidin-1-y1)-2-(trifluoromethyl)pyrimidin-4-yl)piperidine-3-carboxamide] | < 100 | 100 to 999
20 | O=C(NCCc1ccc(C(F)(F)F)cc1)[C@@H]1CCCN(c2cc(N3CCNCC3)nc(C(F)(F)F)n2)C1 [Compound 327, (R)-1-(6-(piperazin-1-yl)-2-(trifluoromethyl)pyrimidin-4-yl)-N-(4-(trifluoromethyl)phenethyl)piperidine-3-carboxamide] | 1000 to 30000 | 100 to 999
21 | N#Cc1ccc(CCNC(=O)[C@@H]2CCCN(c3cc(OC4CCOCC4)nc(C(F)(F)F)n3)C2)cc1 [Compound 334] | < 100 | < 100
22 | O=C(NCCc1ccc(C(F)(F)F)cc1)[C@@H]1CCCN1c1cc(NCc2ccncc2)nc(C(F)(F)F)n1 [Compound 3] | 1000 to 30000 | 100 to 999
